Assay results from US8338598B2, “Herbicidal pyrido[2,3-B]pyrazines and their use as herbicides” (Syngenta Limited, priority 2008, dated 2012).

How the values were obtained:
Type in all cases: in vivo
Setaria faberi [1] = assay: Example B2 herbicidal action, post-emergence, pots in glasshouse; settings: evaluated after 13 days, 10=total damage to plant, 0=no damage to plant
Description: (§1) Seeds of a variety of test species were sown in standard soil in pots. After cultivation for one day (pre-emergence) or after 8 days cultivation (post-emergence) under controlled conditions in a glasshouse (at 24/16° C., day/night; 14 hours light; 65% humidity), the plants were sprayed with an aqueous spray solution derived from the formulation of the technical active ingredient in acetone/water (50:50) solution containing 0.5% Tween 20 (polyoxyethelyene sorbitan monolaurate, CAS RN 9005-64-5). The test plants were then grown in a glasshouse under controlled conditions in a glasshouse (at 24/16° C., day/night; 14 hours light; 65% humidity) and watered twice daily. After 13 days, the test was evaluated (10=total damage to plant; 0=no damage to plant).

Amaranthus retroflexus [2] = assay: as above; settings: evaluated after 13 days, 10=total damage to plant, 0=no damage to plant
Description: as §1

Ipomea hederaceae [3] = assay: as above; settings: evaluated after 13 days, 10=total damage to plant, 0=no damage to plant
Description: as §1

Solanum nigrum [4] = assay: as above; settings: evaluated after 13 days, 10=total damage to plant, 0=no damage to plant
Description: as §1

Echinochloa crus-galli [5] = assay: as above; settings: evaluated after 13 days, 10=total damage to plant, 0=no damage to plant
Description: as §1

Setaria faberi [6] = assay: Example B2 herbicidal action, pre-emergence, pots in glasshouse; settings: evaluated after 13 days, 10=total damage to plant, 0=no damage to plant
Description: as §1

Amaranthus retroflexus [7] = assay: as above; settings: evaluated after 13 days, 10=total damage to plant, 0=no damage to plant
Description: as §1

Ipomea hederaceae [8] = assay: as above; settings: evaluated after 13 days, 10=total damage to plant, 0=no damage to plant
Description: as §1

Solanum nigrum [9] = assay: as above; settings: evaluated after 13 days, 10=total damage to plant, 0=no damage to plant
Description: as §1

Echinochloa crus-galli [10] = assay: as above; settings: evaluated after 13 days, 10=total damage to plant, 0=no damage to plant
Description: as §1

Amaranthus retroflexus [11] = assay: Example B1 herbicidal action, post-emergence, seed trays in climatic chamber; settings: 1000 g/ha, evaluated after 9 days, 10=total damage to plant, 0=no damage to plant
Description: (§2) Seeds of a variety of test species were sown in sterilised standard soil in seed trays each having 96 cells. After cultivation for 8 to 9 days cultivation (post-emergence) under controlled conditions in a climatic chamber (cultivation at 23/17° C., day/night; 13 hours light; 50-60% humidity), the plants were treated with an aqueous spray solution of 1000 mg/l of the active ingredient dissolved in 10% DMSO (dimethyl sulfoxide, CAS RN 67-68-5) as a solvent, equivalent to 1000 g/ha. The plants were grown in the climatic chamber after application at (24/19° C., day/night; 13 hours light; 50-60% humidity) and watered twice daily. After 9 days until the test was evaluated (10=total damage to plant, 0=no damage to plant)

Solanum nigrum [12] = assay: as above; settings: 1000 g/ha, evaluated after 9 days, 10=total damage to plant, 0=no damage to plant
Description: as §2

Stellaria media = assay: as above; settings: 1000 g/ha, evaluated after 9 days, 10=total damage to plant, 0=no damage to plant
Description: as §2

Nasturtium officinale = assay: as above; settings: 1000 g/ha, evaluated after 9 days, 10=total damage to plant, 0=no damage to plant
Description: as §2

Row | SMILES | SETFA, damage to plant (Setaria faberi [1]; 1000 g/ha) | AMARE, damage to plant (Amaranthus retroflexus [2]; 1000 g/ha) | IPOHE, damage to plant (Ipomea hederaceae [3]; 1000 g/ha) | SOLNI, damage to plant (Solanum nigrum [4]; 1000 g/ha) | ECHCG, damage to plant (Echinochloa crus-galli [5]; 1000 g/ha) | SETFA, damage to plant (Setaria faberi [6]; 1000 g/ha) | AMARE, damage to plant (Amaranthus retroflexus [7]; 1000 g/ha) | IPOHE, damage to plant (Ipomea hederaceae [8]; 1000 g/ha) | SOLNI, damage to plant (Solanum nigrum [9]; 1000 g/ha) | ECHCG, damage to plant (Echinochloa crus-galli [10]; 1000 g/ha) | further results
1 | CC(C)C(=O)Oc1c(-c2ccc(C(F)(F)F)nc2Cl)c(=O)n(CC(F)F)c2nccnc12 [Compound A30] |  |  |  |  |  |  |  |  |  |  | SETFA, damage to plant (Setaria faberi [1]; 250 g/ha): 4; AMARE, damage to plant (Amaranthus retroflexus [2]; 250 g/ha): 9; IPOHE, damage to plant (Ipomea hederaceae [3]; 250 g/ha): 6; SOLNI, damage to plant (Solanum nigrum [4]; 250 g/ha): 6; ECHCG, damage to plant (Echinochloa crus-galli [5]; 250 g/ha): 1; SETFA, damage to plant (Setaria faberi [6]; 250 g/ha): 0; AMARE, damage to plant (Amaranthus retroflexus [7]; 250 g/ha): 1; IPOHE, damage to plant (Ipomea hederaceae [8]; 250 g/ha): 0; SOLNI, damage to plant (Solanum nigrum [9]; 250 g/ha): 1; ECHCG, damage to plant (Echinochloa crus-galli [10]; 250 g/ha): 3
2 | Cc1nc(Cl)sc1-c1c(OC(=O)C(C)C)c2nccnc2n(C)c1=O [Compound B2, isobutyric acid 7-(2-chloro-4-methyl-thiazol-5-yl)-5-methyl-6-oxo-5,6-dihydro-pyrido[2,3-b]pyrazin-8-yl ester] |  |  |  |  |  |  |  |  |  |  | AMARE, damage to plant (Amaranthus retroflexus [11]): 0; SOLNI, damage to plant (Solanum nigrum [12]): 0; STEME, damage to plant (Stellaria media): 0; NAAOF, damage to plant (Nasturtium officinale): 5
3 | CC(C)C(=O)Oc1c(-c2c(C(F)(F)F)nn(C)c2OC(F)F)c(=O)n(CC(F)F)c2nccnc12 [Compound B24, isobutyric acid 7-(5-difluoromethoxy-1-methyl-3-trifluoromethyl-1H-pyrazol-4-yl)-5-(2,2-difluoro-ethyl)-6-oxo-5,6-dihydro-pyrido[2,3-b]pyrazin-8-yl ester] | 8 | 9 | 8 | 10 | 8 | 7 | 10 | 5 | 8 | 8 | 
4 | Cn1nc(C(F)(F)F)c(-c2c(O)c3nccnc3n(CC(F)F)c2=O)c1OC(F)F [Compound B25, 7-(5-difluoromethoxy-1-methyl-3-trifluoromethyl-1H-pyrazol-4-yl)-5-(2,2-difluoro-ethyl)-8-hydroxy-5H-pyrido[2,3-b]pyrazin-6-one] | 8 | 8 | 8 | 10 | 8 | 8 | 10 | 6 | 7 | 8 | 
5 | Cn1nc(C(F)(F)F)c(-c2c(O)c3nccnc3[nH]c2=O)c1OC(F)F [Compound B26, 7-(5-difluoromethoxy-1-methyl-3-trifluoromethyl-1H-pyrazol-4-yl)-8-hydroxy-5H-pyrido[2,3-b]pyrazin-6-one] | 8 | 5 | 3 | 3 | 6 | 0 | 1 | 0 | 0 | 1 | 
6 | CC(C)C(=O)Oc1c(-c2nn(C)nc2C(F)(F)F)c(=O)[nH]c2nccnc12 [Compound B28] | 1 | 0 | 0 | 1 | 0 | 0 | 7 | 0 | 0 | 0 | 
7 | CC(C)C(=O)Oc1c(-c2nn(C)nc2C(F)(F)F)c(=O)n(CC(F)F)c2nccnc12 [Compound B29] | 7 | 8 | 7 | 7 | 3 | 3 | 4 | 1 | 2 | 1 | 
8 | Cn1nc(-c2c(O)c3nccnc3n(CC(F)F)c2=O)c(C(F)(F)F)n1 [Compound B30] | 7 | 9 | 8 | 9 | 6 | 2 | 7 | 3 | 2 | 1 | 
